The assay has as its system BDF1 mice, B16 melanoma ip, median survival T/C. In words: NCI In Vivo Anticancer Drug Screen. Data for tumor model B16 Melanoma (intraperitoneal) in B6D2F1 (BDF1) mice. To be noted: endpoint: median survival time, higher = longer survival. The protocol: The antitumor activity of compounds was measured in mice bearing transplantable tumors. Survival or tumor size were measured and the results are expressed as the measurement made in the treated group (T) divided by the measurement made in the vehicle treated control group (C). The tumor model used in this assay is B16 Melanoma (intraperitoneal) in B6D2F1 (BDF1) mice

The mark [1] stands for this setting: dose: 50.0 mg/kg/injection, schedule: Q01DX009 (ip), vehicle: saline with Tween-80.
The mark [2] stands for this setting: dose: 100.0 mg/kg/injection, schedule: Q01DX009 (ip), vehicle: saline with Tween-80.
The mark [3] stands for this setting: dose: 200.0 mg/kg/injection, schedule: Q01DX009 (ip), vehicle: saline with Tween-80.
The mark [4] stands for this setting: dose: 100.0 mg/kg/injection, schedule: Q04DX003 (ip), vehicle: Klucel (hydroxypropylcellulose) (HPC).
Where [5] appears, read: dose: 200.0 mg/kg/injection, schedule: Q04DX003 (ip), vehicle: Klucel (hydroxypropylcellulose) (HPC).
The mark [6] stands for this setting: dose: 400.0 mg/kg/injection, schedule: Q04DX003 (ip), vehicle: Klucel (hydroxypropylcellulose) (HPC).

Several values for one entry are separate records, joined by “and”; a condition that tells them apart may be missing. Equal entries are not always repeated. Inconclusive results and toxic doses are left out.

Regarding `N=C(N)Sc1cc(O)ccc1O`, the T/C reads like this: (dose: 50.0 mg/kg/injection, schedule: Q01DX009 (ip), vehicle: saline) 105 % of control; (dose: 100.0 mg/kg/injection, schedule: Q01DX009 (ip), vehicle: saline) 94 % of control; (dose: 200.0 mg/kg/injection, schedule: Q01DX009 (ip), vehicle: saline) 91 % of control.
In the case of `COc1ccccc1NC(=O)Nc1ccc(C(=O)OCC(C)C)cc1`, the T/C runs as follows: under setting [1], 100 % of control; under setting [2], 94 % of control; under setting [3], 95 % of control.
`COc1cc(C(=O)O)c(Br)cc1C`: the T/C runs as follows: under setting [4], 105 % of control; under setting [5], 97 % of control.
Turning to `CC(C)(C)N1C(=O)N(C(C)(C)C)C1=O`, the T/C was 102 % of control (dose: 75.0 mg/kg/injection, schedule: Q01DX009 (ip), vehicle: other); 105 % of control (dose: 150.0 mg/kg/injection, schedule: Q01DX009 (ip), vehicle: other); 102 % of control (dose: 300.0 mg/kg/injection, schedule: Q01DX009 (ip), vehicle: other).
Turning to `COC(=O)c1[nH]c(=O)[nH]c(=O)c1F`, the T/C by setting is: (dose: 2.0 mg/kg/injection, schedule: Q01DX009 (ip), vehicle: saline with Tween-80) 95 % of control; (dose: 4.0 mg/kg/injection, schedule: Q01DX009 (ip), vehicle: saline with Tween-80) 97 % of control; (dose: 8.0 mg/kg/injection, schedule: Q01DX009 (ip), vehicle: saline with Tween-80) 107 % of control.
Turning to `CCCC1CCC(=C2C(=O)CCC2=O)O1` (stereo not drawn), the T/C is, setting by setting: (dose: 3.13 mg/kg/injection, schedule: Q01DX009 (ip), vehicle: saline) 102 % of control; (dose: 6.25 mg/kg/injection, schedule: Q01DX009 (ip), vehicle: saline) 100 % of control; (dose: 12.5 mg/kg/injection, schedule: Q01DX009 (ip), vehicle: saline) 91 % of control; (dose: 25.0 mg/kg/injection, schedule: Q01DX009 (ip), vehicle: saline) 89 % of control.
Turning to `O=C1C(N2CC2)=C(N2CC2)C(=O)C(N2CC2)=C1N1CC1`, the T/C was 100 % of control and 118 % of control (dose: 10.0 micrograms/kg/injection, schedule: Q01DX009 (ip), vehicle: saline); 120 % of control (dose: 20.0 micrograms/kg/injection, schedule: Q01DX009 (ip), vehicle: saline).
Take `O=C1NC(=O)C2(CCc3ccc(N(CCCl)CCCl)cc32)N1` (stereo not drawn): the T/C (dose: 1.5 mg/kg/injection, schedule: Q01DX009 (ip), vehicle: saline with Tween-80) is 120 % of control; the T/C (dose: 3.0 mg/kg/injection, schedule: Q01DX009 (ip), vehicle: saline with Tween-80) is 116 % of control; the T/C (dose: 12.0 mg/kg/injection, schedule: Q01DX009 (ip), vehicle: saline with Tween-80) is 183 % of control; the T/C (dose: 12.5 mg/kg/injection, schedule: Q01DX004 (oral), vehicle: saline with Tween-80) was 102 % of control.
With `CC(C)C(O)(C(=O)NN)C(=O)NN`, the T/C (dose: 50.0 mg/kg/injection, schedule: Q04DX003 (ip), vehicle: saline) was 91 % of control; the T/C (dose: 100.0 mg/kg/injection, schedule: Q04DX003 (ip), vehicle: saline) was 96 % of control; the T/C (dose: 200.0 mg/kg/injection, schedule: Q04DX003 (ip), vehicle: saline) was 117 % of control.
On to `CCNCCNc1ccc(NCCNCC)c2c1C(=O)c1ccccc1C2=O`, for which the T/C runs as follows: (dose: 8.0 mg/kg/injection, schedule: Q01DX009 (ip), vehicle: acid diluted with saline) 157 % of control; (dose: 16.0 mg/kg/injection, schedule: Q01DX009 (ip), vehicle: acid diluted with saline) 158 % of control.
As to `CC1(C)N=C(N)N=C(N)N1c1ccc(CCCCc2ccc(Cl)c(S(=O)(=O)F)c2)c(Cl)c1`, the T/C (dose: 8.0 mg/kg/injection, schedule: Q01DX009 (ip), vehicle: saline) was 105 % of control; the T/C (dose: 12.0 mg/kg/injection, schedule: Q01DX009 (ip), vehicle: saline) is 114 % of control; the T/C (dose: 18.0 mg/kg/injection, schedule: Q01DX009 (ip), vehicle: saline) is 118 % of control.
`C[Si](C)(C)c1c(F)c(F)cc(F)c1F`: the T/C under setting [4] was 98 % of control, the T/C under setting [5] is 97 % of control and the T/C under setting [6] was 97 % of control.
As for `CC12CCC(C1)C(C)(C)C2NCCCN1C(=O)c2ccc3c4c(ccc(c24)C1=O)C(=O)N(CCCNC1C2(C)CCC(C2)C1(C)C)C3=O` (stereo not drawn), the T/C is 100 % of control (dose: 6.25 mg/kg/injection, schedule: Q01DX009 (ip), vehicle: Klucel (hydroxypropylcellulose) (HPC)); 96 % of control (dose: 12.5 mg/kg/injection, schedule: Q01DX009 (ip), vehicle: Klucel (hydroxypropylcellulose) (HPC)); 106 % of control and 109 % of control (dose: 25.0 mg/kg/injection, schedule: Q01DX009 (ip), vehicle: Klucel (hydroxypropylcellulose) (HPC)).
Turning to `COc1cccc2c1C(=O)c1c(O)c3c(c(O)c1C2=O)C[C@@](O)(C(C)O)C[C@@H]3OC1CC(N2CCC(OC)CC2)C(O)C(C)O1` (stereo partly drawn), the T/C was 112 % of control (dose: 3.12 mg/kg/injection, schedule: Q01DX001 (ip), vehicle: water); 117 % of control (dose: 6.25 mg/kg/injection, schedule: Q01DX001 (ip), vehicle: water); 173 % of control (dose: 12.5 mg/kg/injection, schedule: Q01DX001 (ip), vehicle: water); 165 % of control and 166 % of control (dose: 25.0 mg/kg/injection, schedule: Q01DX001 (ip), vehicle: water); 177 % of control (dose: 50.0 mg/kg/injection, schedule: Q01DX001 (ip), vehicle: water).
`OCCc1ccccc1`: the T/C was 93 % of control (dose: 31.3 mg/kg/injection, schedule: Q01DX009 (ip), vehicle: saline with Tween-80); 100 % of control under setting [1]; 95 % of control (dose: 62.5 mg/kg/injection, schedule: Q01DX009 (ip), vehicle: saline with Tween-80); 97 % of control under setting [2]; 100 % of control (dose: 125.0 mg/kg/injection, schedule: Q01DX009 (ip), vehicle: saline with Tween-80); 105 % of control under setting [3]. Besides, the T/C (dose: 250.0 mg/kg/injection, schedule: Q01DX009 (ip), vehicle: saline with Tween-80) was 93 % of control.
On to `Cc1ccc(NS(=O)(=O)c2ccc(Cl)cc2)cc1Cl`, for which the T/C by setting is: (dose: 25.0 mg/kg/injection, schedule: Q01DX009 (ip), vehicle: saline with Tween-80) 99 % of control; under setting [1], 99 % of control; under setting [2], 95 % of control.
For `Cc1c2cnccc2c(C)c2c1c1ccccc1n2CC1CO1` (stereo not drawn), the T/C (dose: 3.75 mg/kg/injection, schedule: Q01DX009 (ip), vehicle: Klucel (hydroxypropylcellulose) (HPC)) was 117 % of control; the T/C (dose: 7.5 mg/kg/injection, schedule: Q01DX009 (ip), vehicle: Klucel (hydroxypropylcellulose) (HPC)) was 114 % of control; the T/C (dose: 15.0 mg/kg/injection, schedule: Q01DX009 (ip), vehicle: Klucel (hydroxypropylcellulose) (HPC)) is 121 % of control.
As for `Cc1cccc(C)c1NC(=O)Nc1cccc2ccccc12`, the T/C reads like this: (dose: 100.0 mg/kg/injection, schedule: Q01DX009 (ip), vehicle: gum acacia) 117 % of control; (dose: 200.0 mg/kg/injection, schedule: Q01DX009 (ip), vehicle: gum acacia) 109 % of control; (dose: 400.0 mg/kg/injection, schedule: Q01DX009 (ip), vehicle: gum acacia) 100 % of control.
For the compound `c1ccc2c(c1)Cc1cc3ccccc3nc1-2`, the T/C under setting [4] was 102 % of control, the T/C under setting [5] was 114 % of control and the T/C under setting [6] is 98 % of control.
As to `Nc1nc(N)nc(N)n1`, the T/C (dose: 100.0 mg/kg/injection, schedule: Q01DX009 (ip), vehicle: Klucel (hydroxypropylcellulose) (HPC)) is 100 % of control; the T/C under setting [2] is 102 % of control; the T/C (dose: 200.0 mg/kg/injection, schedule: Q01DX009 (ip), vehicle: Klucel (hydroxypropylcellulose) (HPC)) was 100 % of control; the T/C under setting [3] was 102 % of control; the T/C (dose: 400.0 mg/kg/injection, schedule: Q01DX009 (ip), vehicle: Klucel (hydroxypropylcellulose) (HPC)) is 105 % of control; the T/C (dose: 400.0 mg/kg/injection, schedule: Q01DX009 (ip), vehicle: saline with Tween-80) is 87 % of control. Further, the T/C (dose: 800.0 mg/kg/injection, schedule: Q01DX009 (ip), vehicle: saline with Tween-80) was 90 % of control.
In the case of `COc1cc2ccc3cnccc3c2cc1OC`, the T/C (dose: 25.0 mg/kg/injection, schedule: Q01DX009 (ip), vehicle: water) is 99 % of control; the T/C (dose: 50.0 mg/kg/injection, schedule: Q01DX009 (ip), vehicle: water) is 91 % of control; the T/C (dose: 100.0 mg/kg/injection, schedule: Q01DX009 (ip), vehicle: water) is 98 % of control; the T/C (dose: 200.0 mg/kg/injection, schedule: Q01DX009 (ip), vehicle: water) is 88 % of control.

The values above are taken from PubChem BioAssay AID192 (DTP/NCI, 2004).
